# Source: patent US20130190345A1, “MATRINIC ACID/MATRINE DERIVATIVES AND PREPARATION METHODS AND USES THEREOF” (priority 2010, published 2013)
# Legend:
# Format in all cases: cell-based
# HCV = experiment: Inhibition effects of compounds on HCV in Huh7.5 cultured cell after HCV infection; conditions: for EC50 (half effective concentration): virus not given, stands beside HCV inhibition rate
# Experimental: 1×10^5/ml Huh7.5 cells (purchased from Vertex Pharmaceutical Co., USA) were inoculated in an amount of 0.1 ml on 96-well culture plate, placed in an incubator with 37° C., 5% CO2 content and saturation humidity, and cultured for 24 h, HCV virus in 45 IU/cell was used to infect Huh7.5, different drug solutions (DM122) formulated with culture medium were added, and cell control and HCV infection control were set. Cultivation was continuously performed in the incubator with 37° C., 5% CO2 content and saturation humidity for 72 h, kit for RNA extraction was used to extract intracellular RNA, one-step qRT-PCR was used to determine intracellular contents of HCV and GAPDH RNA, and the inhibition effects of drug on HCV infection was analyzed. […] In comparison with the virus control group, the inhibition effects on HCV infection upon action of different drugs were analyzed. […] This experiment was repeated for 3 times, * indicated […] in comparison with control, ** indicated p<0.01 in comparison with control.
# Hsc70 [1] = experiment: Detection of Hsc70 gene expression level upon action of compound on 2.2.15 cells (real-time fluorescent quantified PCR); set-up: Hsc70 mRNA / Hsc70 down-regulation rate (%): unit not given here; conditions: for Hsc70 inhibition rate (down-regulation of Hsc70 expression activity, expressed in relative OMT ratio): 2.2.15 cells, relative to OMT (= 1); for Hsc70 down-regulation rate (%): single value, concentration not given, values coincide with Table 1 relative OMT ratios
# Experimental: 2.2.15 cells (purchased from Vertex Pharmaceutical Co., USA) in a number of 1×10^6 were inocubated to 6-well plate, cultured in a culture medium containing 10% fetal calf serum for 24 hr, the original culture medium was discarded, replaced with a culutre medium containing 400 μg/ml OMTR, which was used as control. Compounds were firstly dissolved in MEM to form 20 mg/ml mother liquid, which was diluted with culture medium when used and then applied to cells. The compounds of Examples 1-114 were separately used for treatment for 12, 24, 36 hr, then cells were harvested for extraction of RNA and DNA, then the changes of Hsc70 mRNA and HBV DNA were detected by real-time fluorescent quantified PCR.
# 2.2.15 cells = experiment: Drug TC50 by MTT detection; conditions: Reed-Muench
# Experimental: 2.2.15 cells (all cells were purchased from Vertex Pharmaceutical Co., USA) in exponential growth phase were inoculated on 96-well culture plate, 2×10^5 cells/well, added with culture media containing PFA diluted in different concentration rates, 3 wells for each diluted concentration, placed in 37° C. CO2—containing incubator and cultivated for 48 h; the supernatant was discarded, 100 μl of MTT (0.5 mg/ml) in culture medium was added, cultivation was continuously performed at 37° C. for 4 h; each well was added to 100 μl of 50% DMF-20% SDS destaining solution, stood at 37° C. overnight; ELISA was used to measure optical density at wavelength of 570 nm (0D570).
# In each experiment, 3 cell control wells and 3 blank controls well were set, the results were used in formula, (cell control OD570-drug-medicated cell OD570)/cell control OD570, to calculate cell death rate (%), and Reed-Muench method was used to calculate half toxic concentration TC50.
# Hsc70 [2] = experiment: Inhibition effects of compound on Hsc70 in Huh7.5 cultured cell (qRT-PCR, Western blotting); set-up: key to Hsc70 down-regulation rate (%): “—” represents no significant inhibition rate
# Experimental: 2×10^5/ml Huh7.5 cells (purchased from Vertex Pharmaceutical Co., USA) were inoculated in an amount of 3 ml on 6-well culture plate, placed in an incubator with 37° C., 5% CO2 content, saturation humidity, and cultured for 24 h, added with different drug solutions (DM122) formulated with culture medium, and cell control was set. Cultivation was continuously performed in the incubator with 37° C., 5% CO2 content, saturation humidity for 24 h, a kit for RNA extraction was used to extract intracellular RNA from the cells, and one-step qRT-PCR was used to determine intracellular contents of Hsc70 and GAPDHRNA. After the cultivation of cells was performed for 48 h, the cells were digested and harvested, then the cells were split with CytoBuster™ Protein Extraction Buffer that contained many kinds of protease inhibitors, total intracellular proteins were extracted, and Western blotting was used to analyze the contents of Hsc70 and GAPDH proteins. In comparison with the cell control, the inhibition effects on Hsc70 upon action of different drugs were analyzed.
Compound,HCV inhibition rate (%) (HCV; 200 ug/ml (upper data)),HCV inhibition rate (%) (HCV; 400 ug/ml (lower data)),EC50 (half effective concentration) (HCV),"Hsc70 inhibition rate (down-regulation of Hsc70 expression activity, expressed in relative OMT ratio) (Hsc70 [1])",CC50 (concentration to cause poisoning in half cells) (2.2.15 cells),Hsc70 down-regulation rate (%) (Hsc70 [2]; 200 ug/ml (upper data)),Hsc70 down-regulation rate (%) (Hsc70 [2]; 400 ug/ml (lower data)),Hsc70 down-regulation rate (%) (Hsc70 [1])
"O=C(O)CCCC1C2CCCN3CCCC(CN1Cc1cccc(F)c1)C23 (centres unmarked) [DM-133, N-(3-fluorobenzyl) matrinic acid]",96.4 ± 0.8%,98.6 ± 0.8%,67.33 µg/mL,0.81,527.8 µg/mL,—,—,
"Cc1ccc(C(=O)N2CC3CCCN4CCCC(C34)C2CCCC(=O)O)cc1 [Compound L7, (5R)—N-(p-methylbenzoyl)matrinic acid]",89.5 ± 2.0%,95.7 ± 1.1%,291.73 µg/mL,,>1000 µg/mL,63.3 ± 1.2%,—,
"Cc1ccc(CN2CC3CCCN4CCCC(C2CCCC(=O)O)C34)cc1 (centres unmarked) [DM-140, N-(4-methylbenzyl) matrinic acid]",83.4 ± 1.8%,96.0 ± 1.2%,18.68 µg/mL,0.77,>1000 µg/mL,53.8 ± 7.6%,—,
"COc1ccc(S(=O)(=O)N2CC3CCCN4CCCC(C34)C2CCCC(=O)O)cc1 (centres unmarked) [DM-103, N-(4-methoxybenzenesulfonyl) matrinic acid]",69.1 ± 14.5%,91.4 ± 1.8%,135.71 µg/mL,,>1000 µg/mL,74.8 ± 5.6%,—,
"O=C(O)CCCC1C2CCCN3CCCC(CN1Cc1ccc(F)cc1)C23 (centres unmarked) [DM-132, N-(4-fluorobenzyl) matrinic acid]",67.7 ± 5.8%,82.7 ± 5.6%,52.86 µg/mL,0.99,903.2 µg/mL,80.1 ± 5.7%,32.8 ± 26.8%,
"Cc1ccccc1CN1CC2CCCN3CCCC(C1CCCC(=O)O)C23 (centres unmarked) [DM-138, N-(2-methylbenzyl) matrinic acid]",91.5 ± 7.4%,95.1 ± 2.9%,82.49 µg/mL,1.35,418.3 µg/mL,34.8 ± 2.1%,21.1 ± 12.0%,
"Cc1cccc(CN2CC3CCCN4CCCC(C2CCCC(=O)O)C34)c1 (centres unmarked) [DM-139, N-(3-methylbenzyl) matrinic acid]",88.5 ± 4.8%,98.1 ± 1.0%,98.65 µg/mL,1.39,885.1 µg/mL,20.5 ± 24.8%,—,
"O=C(O)CCC[C@@H]1[C@H]2CCCN3CCC[C@@H](CN1Cc1ccc(OC(F)(F)F)cc1)[C@@H]23 [DM-162, N-(4-trifluoromethoxybenzyl) matrinic acid]",96.2 ± 0.3%,99.1 ± 0.1%,34.06 µg/mL,,431.6 µg/mL,—,—,
"O=C(O)CCC[C@@H]1[C@H]2CCCN3CCC[C@@H](CN1Cc1ccccc1F)[C@@H]23 [DM-135, N-(2-fluorobenzyl)matrinic acid]",74.3 ± 8.2%,90.5 ± 2.0%,29.86 µg/mL,0.41,620.68 µg/mL,0.1 ± 5.6%,—,
"O=C(O)CCCC1C2CCCN3CCCC(CN1Cc1cccc([N+](=O)[O-])c1)C23 (centres unmarked) [DM-137, N-(3-nitrobenzyl) matrinic acid]",99.8 ± 0.1%,99.7 ± 0.0%,<12.34 µg/mL,1.31,471.59 µg/mL,—,—,
"O=C(O)CCCC1C2CCCN3CCCC(CN1Cc1ccccc1Cl)C23 (centres unmarked) [DM-124, N-(2-chlorobenzyl) matrinic acid]",,,68.27 µg/mL,0.32,504.6 µg/mL,,,0.32
"O=C(O)CCC[C@@H]1[C@H]2CCCN3CCC[C@@H](CN1Cc1cscn1)[C@@H]23 [DM-146, N-(thiazol-4-yl)methyl matrinic acid]",,,63.99 µg/mL,0.92,>1000 µg/mL,,,0.92
"O=C(O)CCC[C@@H]1[C@H]2CCCN3CCC[C@@H](CN1Cc1ccc(Cl)c(Cl)c1)[C@@H]23 [DM-127, N-(3,4-dichlorobenzyl) matrinic acid]",,,113.64 µg/mL,−2.92,427.8 µg/mL,,,−2.92
"Cc1ccc([N+](=O)[O-])cc1C(=O)N1C[C@@H]2CCCN3CCC[C@@H]([C@H]23)[C@H]1CCCC(=O)O [DM-131, N-(2-methyl-5-nitrobenzoyl) matrinic acid]",,,89.31 µg/mL,−0.86,>1000 µg/mL,,,−0.86
